Results as given in PubChem BioAssay (NCI).
Values joined by “and” are separate entries in the source; they are usually repeats but may differ in a detail not shown here. Identical values can stand only once.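 Five concentrations, 48 hours, 96-well plates. Here, GI50 denotes the concentration required for 50% inhibition of growth. The concentration for full growth arrest is given as TGI.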

Experiments:
Assay in all cases: DTP human tumour cell line panel, 48 h
DU-145 prostate = system: DU-145 prostate
HOP-92 NSCLC = system: HOP-92 NSCLC
K-562 leukemia = system: K-562 leukemia
LOX IMVI melanoma = system: LOX IMVI melanoma
M14 melanoma = system: M14 melanoma
MDA-MB-435 = system: MDA-MB-435
NCI-H522 lung = system: NCI-H522 lung
RPMI-8226 leukemia = system: RPMI-8226 leukemia
U251 CNS = system: U251 CNS
UACC-62 melanoma = system: UACC-62 melanoma

SMILES | GI50 (DU-145 prostate) | TGI (DU-145 prostate) | GI50 (HOP-92 NSCLC) | TGI (HOP-92 NSCLC) | GI50 (K-562 leukemia) | TGI (K-562 leukemia) | GI50 (LOX IMVI melanoma) | TGI (LOX IMVI melanoma) | GI50 (M14 melanoma) | TGI (M14 melanoma) | GI50 (MDA-MB-435) | TGI (MDA-MB-435) | GI50 (NCI-H522 lung) | TGI (NCI-H522 lung) | TGI (RPMI-8226 leukemia) | GI50 (U251 CNS) | TGI (U251 CNS) | GI50 (UACC-62 melanoma) | TGI (UACC-62 melanoma) | GI50 (RPMI-8226 leukemia)
O=c1cccc(C#CC#CCCCO)o1 | 2.37 µM | 5.86 µM | 2.47 µM | 6.13 µM | 4.08 µM | > 100 µM | 2.51 µM | > 27.9 µM | 4.76 µM | 21.5 µM | 4.99 µM | 13.6 µM | 3.55 µM | > 32 µM | > 26.7 µM | 2.74 µM | 7.96 µM | 4.42 µM | 10.5 µM | –
Cc1oc2c(c1C(=O)N1CC[C@@H](N)C1)C(=O)c1c(c(O)c3ccccc3c1O)C2=O | 1.06 µM | 15.5 µM | 4.64 µM | 17.4 µM | 1.86 µM | 9 µM | 1.1 µM | 3.96 µM | 1.41 µM | 2.96 µM | 2.58 µM | 10.1 µM | 1.39 µM | 4.77 µM | 12.6 µM | 1.27 µM | 9.27 µM | 4.46 µM | 19.6 µM | 2.51 µM
O=C1CCC(N2C(=O)c3cccc(NCCCC4CCN(CCNC(=O)c5cc6c(o5)C(=O)c5ccccc5C6=O)CC4)c3C2=O)C(=O)N1 (centres undefined) | 0.185 µM | 0.344 µM | 3.51 µM | 15.1 µM | 0.654 µM | 6.3 µM | 0.288 µM | 1.13 µM | 0.161 µM | 0.309 µM | 0.182 µM | 0.335 µM | 1.5 µM | 3.27 µM | 20.9 µM | 1.14 µM | 2.45 µM | 0.304 µM | 0.98 µM | 1.7 µM
O=S(=O)(NC1=NCCN1C(=S)SN1CCn2c1nsc2=S)c1cccc(OC(F)(F)F)c1 | 14.1 µM | 29.6 µM | 4.45 µM | 20.4 µM | 4.47 µM | > 100 µM | 3.71 µM | 12.4 µM | 13 µM | 28.1 µM | 5.86 µM | 22.1 µM | 6.85 µM | 28.3 µM | 4.44 µM | 17.2 µM | 30.9 µM | 9.68 µM | 21.6 µM | 2.06 µM
CCSc1nc(N)c(C#N)c(-c2ccco2)c1C#N | 42.6 µM | > 100 µM | 5.85 µM | 45.5 µM | 43.7 µM | > 100 µM | 17.1 µM | 37.1 µM | 48.1 µM | > 100 µM | 25.2 µM | 66.1 µM | 91.5 µM | > 100 µM | 42.4 µM | 22.7 µM | 83.7 µM | 32.6 µM | > 100 µM | 12.2 µM
C=CCn1c(=O)c2cnc(Nc3ccc(N4CCN(C)CC4)cc3)nc2n1-c1cccc(C(C)(C)O)n1 | 0.872 µM and 0.678 µM | 18 µM and > 10 µM | 0.131 µM and 0.221 µM | 3.92 µM and 2.38 µM | 0.315 µM and 0.282 µM | 17.8 µM and > 7.64 µM | 0.433 µM and 0.537 µM | 6.06 µM and > 7.93 µM | 0.191 µM and 0.213 µM | 11.2 µM and > 5.86 µM | 0.201 µM and 0.247 µM | 0.561 µM and 0.666 µM | 0.176 µM and 0.293 µM | 0.645 µM and 2.08 µM | 5.61 µM and 6.22 µM | 0.707 µM and 1.18 µM | 19.9 µM and > 10 µM | 1.18 µM and 0.484 µM | 20.5 µM and > 10 µM | 1.65 µM and 1.52 µM
